Tested on: F1 Sprague-Dawley rats
Assay: Pilot postnatal study, GD14-18 oral maternal dosing
Assay type: in vivo
Method: A single-dose level pilot study utilizing time-mated SD rats was conducted to examine the potential postnatal effects of in utero exposure to HFPO-DA from a similar dosing interval to the fetal studies (Figure 1B). The study consisted of dams exposed to oral daily dosing with either water vehicle or 125mg/kg HFPO-DA ( n=3 for each) from GD14–18. […] Dams gave birth naturally beginning on the morning of GD22 [i.e., postnatal day (PND) 0]. On PND2 all pups were sexed, weighed, and anogenital distance (AGD) was measured using a Leica MZ6 stereomicroscope (Leica Microsystems) fitted with an ocular micrometer. On PND13, the offspring were sexed, weighed, and evaluated for retention of female-like nipples/areolae. On PND27, the dams were euthanized, uterine implantation sites were scored, pups were weaned to two animals per cage by sex and treatment group, and food was changed to NTP2000 rodent diet. Beginning on PND31 for female offspring and PND41 for male offspring, individuals were evaluated daily for markers of pubertal onset, vaginal opening (VO) for females and balano-preputial separation (BPS) for males.
Beginning at PND128, adult F1 females were weighed, euthanized via decapitation, and examined via necropsy for any reproductive tract malformations and tissue weights were collected for uterus, paired ovaries, liver, paired kidneys, and visceral adipose tissue. Similarly, beginning at PND146 adult F1 males were weighed, euthanized, and examined for reproductive tract malformations and weights were collected for all relevant reproductive tissues. Male necropsy included weights of glans penis, ventral prostate, paired seminal vesicles, paired testes, paired epididymides, levator ani–bulbocavernosus (LABC), paired bulbourethral (Cowper’s) glands, paired kidneys, visceral adipose tissue, and epididymal adipose tissue. […] Total sperm counts in epididymal sections were measured using a Multisizer 3 Coulter counter (Beckman Coulter).

[1] = adult F1 female, 125 mg/kg/d, individual means
[2] = adult F1 female, 125 mg/kg/d, litter means
[3] = adult F1 male, 125 mg/kg/d, individual means
[4] = adult F1 male, 125 mg/kg/d, litter means

With `O=C(O)C(F)(OC(F)(F)C(F)(F)C(F)(F)F)C(F)(F)F` (stereo not shown) [HFPO-DA, Hexafluoropropylene oxide dimer acid] the “viable pups per litter versus control dams” value (125 mg/kg) was “equal numbers of viable pups”, the pup survival (125 mg/kg GD14-18) was “no effect on pup survival” and the “Female AGD on PND2” value (125 mg/kg/d, individual means) was 1.5 ± 0.0 mm. For the same compound, the “Female BW at VO” value (125 mg/kg/d, individual means) was 123.4 ± 2.3 g, the “Female BW on PND27” value (125 mg/kg/d, individual means) was 79.1 ± 1.4 g and the “Female NR on PND13” value (125 mg/kg/d, individual means) was 12.0 ± 0.0. The “Female pup BW on PND2” value (125 mg/kg/d, individual means) was 7.5 ± 0.1 g, the “Female pup BW on PND13” value (125 mg/kg/d, individual means) was 28.7 ± 0.3 g and the “Male AGD on PND2” value (125 mg/kg/d, individual means) was 3.7 ± 0.1 mm. For the same compound, the “Male BW at PPS” value (125 mg/kg/d, individual means) was 211.4 ± 3.7 g, the “Male BW on PND27” value (125 mg/kg/d, individual means) was 81.1 ± 1.6 g and the “Male NR on PND2” value (125 mg/kg/d, individual means) was 0.1 ± 0.1. For the same compound, the “Male pup BW on PND2” value (125 mg/kg/d, individual means) was 7.8 ± 0.1 g, the “Male pup BW on PND13” value (125 mg/kg/d, individual means) was 29.3 ± 0.3 g and the “Dam BW GD14” value (125 mg/kg/d, litter means) was 325.5 ± 5.2 g. For the same compound, the “Dam BW GD18” value (125 mg/kg/d, litter means) was 354.9 ± 9.0 g, the “Dam BW gain” value (125 mg/kg/d, litter means) was 29.4 ± 6.0 g and the “Female AGD on PND2” value (125 mg/kg/d, litter means) was 1.5 ± 0.1 mm. For the same compound, the “Female BW at VO” value (125 mg/kg/d, litter means) was 124.3 ± 4.2 g, the “Female BW on PND27” value (125 mg/kg/d, litter means) was 78.2 ± 3.5 g and the “Female NR on PND13” value (125 mg/kg/d, litter means) was 12.0 ± 0.0. The “Female pup BW on PND2” value (125 mg/kg/d, litter means) was 7.5 ± 0.1 g, the “Female pup BW on PND13” value (125 mg/kg/d, litter means) was 28.7 ± 0.1 g and the “Male AGD on PND2” value (125 mg/kg/d, litter means) was 3.7 ± 0.1 mm. The “Male BW at PPS” value (125 mg/kg/d, litter means) was 214.6 ± 8.0 g, the “Male BW on PND27” value (125 mg/kg/d, litter means) was 83.3 ± 4.7 g and the “Male NR on PND2” value (125 mg/kg/d, litter means) was 0.1 ± 0.1. The “Male pup BW on PND2” value (125 mg/kg/d, litter means) was 7.8 ± 0.1 g, the “Male pup BW on PND13” value (125 mg/kg/d, litter means) was 29.5 ± 0.5 g and the No. implants (125 mg/kg/d, litter means) was 13.0 ± 1.0. The “No. pups on PND2” value (125 mg/kg/d, litter means) was 12.7 ± 0.7, the “Post-implantation loss on PND2” value (125 mg/kg/d, litter means) was 2.2 ± 2.2% and the “adult female AGD and liver weight” value (125 mg/kg, individual basis) was “significantly smaller AGD and lower liver weight”. The “weights of right, left, paired testes, right, left, paired epididymides, epididymal adipose tissue” value (125 mg/kg, individual basis) was “significantly lower tissue weights”, the “female offspring body weight (PND2, PND27, at VO)” value (125 mg/kg, individual pup basis) was “significantly lower than controls” and the “adult female necropsy end points” value (125 mg/kg, litter means basis) was “no significant differences”. For the same compound, the “end points measured through the onset of puberty” value (125 mg/kg, litter means basis) was “no significant differences”, the “right epididymis tissue weight, adult males” value (125 mg/kg, litter means basis) was “significantly lower” and the AGD [1] was 16.7 ± 0.7 mm. For the same compound, the Body weight [1] was 370.3 ± 12.3 g, the Liver [1] was 11.3 ± 0.3 g and the Paired kidneys [1] was 2.1 ± 0.1 g. For the same compound, the Paired ovaries [1] was 123.2 ± 3.6 mg, the Uterus [1] was 635.6 ± 48.9 mg and the Visceral adipose tissue [1] was 25.2 ± 2.4 g. For the same compound, the AGD [2] was 16.8 ± 0.5 mm, the Body weight [2] was 374.0 ± 25.0 g and the Liver [2] was 11.4 ± 0.5 g. For the same compound, the Paired kidneys [2] was 2.1 ± 0.1 g, the Paired ovaries [2] was 122.5 ± 8.6 mg and the Uterus [2] was 635.4 ± 74.3 mg. For the same compound, the Visceral adipose tissue [2] was 25.1 ± 4.6 g, the Body weight [3] was 676.5 ± 10.6 g and the Cauda sperm [3] was 159.7 ± 4.7 106. The Corpus/caput sperm [3] was 72.6 ± 2.3 106, the Epididymal adipose tissue [3] was 7.8 ± 0.5 g and the Glans penis [3] was 134.5 ± 3.0 mg. The LABC [3] was 1.6 ± 0.0 g, the Left epididymis [3] was 668.1 ± 10.4 mg and the Left testis [3] was 1.9 ± 0.0 g. The Liver [3] was 20.1 ± 0.4 g, the “Paired Cowper’s glands” value [3] was 163.4 ± 5.2 mg and the Paired epididymides [3] was 1331.2 ± 21.2 mg. The Paired kidneys [3] was 3.4 ± 0.1 g, the Paired seminal vesicles [3] was 1.8 ± 0.1 g and the Paired testes [3] was 3.8 ± 0.1 g. The Right cauda [3] was 310.5 ± 6.2 mg, the Right corpus/caput [3] was 352.6 ± 7.1 mg and the Right epididymis [3] was 663.1 ± 11.2 mg. For the same compound, the Right testis [3] was 1.9 ± 0.0 g, the Total epididymal sperm [3] was 185.8 ± 4.7 106 and the Ventral prostate [3] was 682.1 ± 32.7 mg. For the same compound, the Visceral adipose tissue [3] was 25.8 ± 1.5 g, the Body weight [4] was 682.6 ± 13.4 g and the Cauda sperm [4] was 160.0 ± 3.4 106. The Corpus/caput sperm [4] was 72.0 ± 2.8 106, the Epididymal adipose tissue [4] was 8.2 ± 1.0 g and the Glans penis [4] was 135.0 ± 1.5 mg. The LABC [4] was 1.5 ± 0.1 g, the Left epididymis [4] was 664.2 ± 12.5 mg and the Left testis [4] was 1.9 ± 0.0 g. For the same compound, the Liver [4] was 20.2 ± 0.4 g, the “Paired Cowper’s glands” value [4] was 165.6 ± 9.7 mg and the Paired epididymides [4] was 1323.7 ± 24.3 mg. The Paired kidneys [4] was 3.4 ± 0.0 g, the Paired seminal vesicles [4] was 1.8 ± 0.1 g and the Paired testes [4] was 3.8 ± 0.1 g. For the same compound, the Right cauda [4] was 309.0 ± 6.0 mg, the Right corpus/caput [4] was 350.5 ± 5.9 mg and the Right epididymis [4] was 659.5 ± 11.8 mg. For the same compound, the Right testis [4] was 1.9 ± 0.0 g, the Total epididymal sperm [4] was 185.6 ± 2.0 106 and the Ventral prostate [4] was 678.7 ± 30.1 mg. It also gave a Visceral adipose tissue [4] of 26.8 ± 2.4 g.

From paper PMC6768323, “Adverse Maternal, Fetal, and Postnatal Effects of Hexafluoropropylene Oxide Dimer Acid (GenX) from Oral Gestational Exposure in Sprague-Dawley Rats” (Environmental Health Perspectives, 2019)
